Counter-ions that a name gives are not always drawn.
What was measured:
Type in all cases: physicochemical
[1] = Heating at 80-105° C. overnight: crystal form and water content; conditions: for Crystal form after heating at 80-105° C. overnight / Crystal form after heating at elevated temperature: HCl; for Crystal form after heating at elevated temperature: about 80° C. overnight
Source text: (§1) Form A is characterized by an X-Ray diffraction pattern having peaks at about 10.9, 17.4 19.1, 25.0 and 26.0±0.2 degrees 2 theta.
(§2) In another aspect, the present invention provides for ziprasidone HCl Form F. Ziprasidone HCl Form F is characterized by an XRD pattern (FIG. 7) with peaks at 11.0, 18.1, 19.5, 21.9±0.2 degrees 2 theta. Ziprasidone HCl Form F is further characterized by XRD peaks at 14.9, 24.9, 26.1±0.2 degrees 2 theta. […] The water content and the weight loss by TGA of the sample may range of about 2.6% to about 16% by weight.
(§3) X-Ray powder diffraction data were obtained using by method known in the art using a SCINTAG powder X-Ray diffractometer model X'TRA equipped with a solid state detector. Copper radiation of 1.5418 Å was used. A round aluminum sample holder with round zero background quartz plate, with cavity of 25(diameter)*0.5(dept) mm.
(§4) The water content of ziprasidone HCl was measured by the methods known in the art like Karl Fisher or thermogravimetric analysis (TGA). In the case of ziprasidone HCl F, the TGA and Karl Fisher analysis matched, while for ziprasidone HCl form E the TGA analysis exceeded by far that of Karl Fisher, as an indication that a significant quantity of solvent is present.

[2] = Equilibration at different relative humidities for 22 days: water uptake (TGA weight loss) and crystal form; conditions: for TGA weight loss (%) (water uptake): HCl
Source text: as §1, §2, §3
TGA analysis was done using a Mettler M3 meter. The weight of the samples was about 10 mg; the samples were scanned at a rate of 10° C./min from 25° C. to 200° C. The oven was constantly purged with nitrogen gas at a flow rate of 40 ml/min. Standard 70 μl alumina crucibles covered by lids with 1 hole were used.
as §4

Solubility in water = experiment: Solubility in water
[3] = Solubility in methanol (noted for Karl Fisher water determination)
Source text: Ziprasidone HCl Form G may have a water content of about 5% to about 12%. Ziprasidone HCl Form G may be a dihydrate (about 7.4% stoichiometric value for the dihydrate) or a trihydrate (about 10.7% stoichiometric value for the trihydrate).

Structure (SMILES)	Crystal form after heating at 80-105° C. overnight [1]	Crystal form after heating at elevated temperature [1]	Crystal form ([2]; RH 0%, 22 days)	TGA weight loss (%) (water uptake) ([2]; RH 0%, 22 days)	TGA weight loss (%) (water uptake) ([2]; RH 20%, 22 days)	TGA weight loss (%) (water uptake) ([2]; RH 40%, 22 days)	TGA weight loss (%) (water uptake) ([2]; RH 60%, 22 days)	Crystal form ([2]; RH 80%, 22 days)	TGA weight loss (%) (water uptake) ([2]; RH 80%, 22 days)	Crystal form ([2]; RH 100%, 22 days)	TGA weight loss (%) (water uptake) ([2]; RH 100%, 22 days)	Crystal form after exposure to relative humidity of about 20% to about 60% ([2]; RH about 20% to about 60%, about 22 days)	Crystal form after exposure to low relative humidity ([2]; about 10% to about 0% relative humidity, 22 days)	Crystal form after exposure to high relative humidity ([2]; high relative humidity, about 22 days)	Solubility in water (Solubility in water)	Solubility in methanol [3]	% water content ([1]; after heating at 80-105° C. overnight) [%]	Water content after heating ([1]; heated overnight at about 80° C.) [%]	Crystal form after equilibration at relative humidity of about 0% to about 100% ([2]; RH about 0% to about 100%)
O=C1Cc2cc(CCN3CCN(c4nsc5ccccc45)CC3)c(Cl)cc2N1 [ziprasidone HCl form E, ziprasidone HCl]	Amorphous + form F	transforms to amorphous form	Amorphous	5.3	7.2	4.8	5.0	Monohydrate +	9.2	Monohydrate +	51.3	transforms to Form A	transforms to amorphous form	transforms to form M	–	–	–	–	–
O=C1Cc2cc(CCN3CCN(c4nsc5ccccc45)CC3)c(Cl)cc2N1 [ziprasidone HCl]	–	–	–	–	–	–	–	–	–	–	–	–	–	–	low solubility	–	–	–	–
O=C1Cc2cc(CCN3CCN(c4nsc5ccccc45)CC3)c(Cl)cc2N1 [Ziprasidone HCl Form G, ziprasidone HCl]	–	–	–	–	–	–	–	–	–	–	–	–	–	–	–	sparingly soluble	–	–	–
O=C1Cc2cc(CCN3CCN(c4nsc5ccccc45)CC3)c(Cl)cc2N1 [ziprasidone HCl form F, ziprasidone HCl]	Form F	retains its original crystal form	–	2.6	4.2	4.0	4.5	–	7.7	–	15.8	–	–	–	–	–	0.8	0.8	retains its crystal form

— patent publication US20080090835A1, “Polymorphic forms of ziprasidone HCl and processes for their preparation” (Teva Pharmaceuticals USA, Inc. for Barbados, priority 2003, published 2008)
